Results on two compounds are retold here after patent US20240408047A1, “HYPOXIA INDUCIBLE FACTOR-2(ALPHA) INHIBITORS FOR THE TREATMENT OF BLADDER CANCER” (NIKANG THERAPEUTICS, INC., priority 2021, published 2024).

One assay has as its system nectin-4. Conditions: patients who progressed following treatment with chemotherapy and immunotherapy; cited from earlier work.
The next assay deals with T24 xenograft model. Nature of the assay: Anti-tumor effect in mouse bladder cancer xenograft model T24. It counts as in vivo, Balb/c Nude mouse. The note with it: 20 mg/kg bid, 17-30 days. Here is the method:
(§1) Compound 1 was formulated with 0.5% methylcellulose. 4˜10×10^6 tumor cells in PBS and Corning® Matrigel (11 in volume) were inoculated subcutaneously at right flank for each Balb/c Nude mouse at 6-7 weeks of age for tumor development. Once tumors were 100-200 mm^3 in size, the tumor bearing mice were randomly grouped into 2 groups (n=8) and treatment started with vehicle bid and Compound 1 at 20 mg/kg bid, respectively, for 17-30 days. Tumor sizes were measured twice weekly in two dimensions using a caliper and the volumes were expressed in mm^3 using the formula V=0.5×a×b^2 where a and b were the long and short diameters of the tumor, respectively.

A further assay has as its system T24 cells. Put plainly: Hypoxia-induced mRNA upregulation of VEGFA and GLUT1 in T24 cells (quantitative PCR). The note with it: 72 h, hypoxic (1% O2), Compound 1 at 1.0 μM. It counts as cell-based. As to the method: T24 cells were treated with DMSO or 1.0 μM of Compound 1; control siRNA or siRNA specific for HIF-1α, HIF-2α, for 72 h under normoxic (20% O2) or hypoxic (1% O2) conditions. Total RNA was extracted using RNeasy mini kit (Qiagen, Catalog #74104) and QIAshredder (Qiagen, Catalog #79654). Then RNA was reverse-transcribed into cDNA using Applied Biosystems™ High-Capacity cDNA Reverse Transcription Kit (Applied Biosystems™ cat #4368814). The cDNA was used as templates to examine the mRNA expression of VEGFA and GLUT1 by quantitative polymerase chain reaction (PCR) assays (PowerUp SYBR Green Master Mix by Applied Biosystems™, cat #A25742), with GAPDH serving as control for normalization.

In the next assay the test system is RT4 xenograft model. Put plainly: Anti-tumor effect in mouse bladder cancer xenograft model RT4. It is filed as in vivo, Balb/c Nude mouse. As to the method: as §1
Another assay concerns RT112 xenograft model. Nature of the assay: Anti-tumor effect in mouse bladder cancer xenograft model RT112. It is filed as in vivo, Balb/c Nude mouse. The note with it: 20 mg/kg bid, 17-30 days. As to the method: as §1

With Enfortumab vedotin, the objective response rate in the assay with nectin-4 is recorded as 44%.
As a reminder, the TGI is the reduction of tumour growth relative to the control group. Higher therefore signals much slowing of growth. Turning to `N#Cc1cc(F)cc(Oc2ccc3c4c2[C@@H](F)C[C@]4(O)C(F)(F)C3(F)F)c1` [Compound 1, 3-fluoro-5-(((1S,2aR)-1,3,3,4,4-pentafluoro-2a-hydroxy-2,2a,3,4-tetrahydro-1H-cyclopenta[cd]inden-7-yl)oxy)benzonitrile], the “anti-tumor effect in T24 xenograft model” value with T24 xenograft model is reported as “complete tumor regression”. Further, in the assay on T24 cells, the “GLUT1 mRNA level induced by hypoxia” value is recorded as “significantly suppressed” and the “VEGFA mRNA level induced by hypoxia” value is on record as “significantly suppressed”. Also, the “anti-tumor effect in RT4 xenograft model” value in the assay on RT4 xenograft model (20 mg/kg bid, 17-30 days) is reported as “significant tumor growth inhibition”. In the assay with RT4 xenograft model (RT4 model, 20 mg/kg of Compound 1), the TGI turned out to be 44%. Also, in the assay on RT112 xenograft model, the “anti-tumor effect in RT112 xenograft model” value is recorded as “marginal anti-tumor effect”.
